Experimental data from patent US10709677B2, “Therapeutic uses of benzylideneguanidine derivatives for the treatment of proteopathies” (InFlectis BioScience, priority 2014, dated 2020).
pEC50: −log10 of the molar value.

Experiments:
[1] = test system: HeLa cells; test: Cytoprotection from ER stress (tunicamycin, WST-8 cell viability); format: cell-based; conditions: 6 hour exposure of tunicamycin 5 μg/mL, inhibitors 0.5-10 μM, viability 48 h or 72 h after
Excerpt: Cytoprotection against ER stress can be measured by a suitable assay. For example, cytoprotection can be measured in HeLa cells in which ER stress is elicited by the addition of media containing tunicamycin, a mixture of homologous nucleoside antibiotics that inhibits the UDP-HexNAc: polyprenol-P HexNAc-1-P family of enzymes and is used to induce unfolded protein response. Cell viability can be detected in the presence and absence of inhibitor compounds after a set period of time, by measuring the reduction of WST-8 into formazan using a standard cell viability kit (such as Cell Viability Counting Kit-8 from Dojindo). The person skilled in the art may use other class of tetrazolium compounds such as MTT, MTS, XTT. Cytoprotection from ER stress is measured in terms of the percentage increase in viable cells (relative to control) after ER stress. Alternative cell viability assays may be used such as luminogenic ATP assay. Further details of a suitable assay are set forth in the accompanying Examples section.
HeLa Cells were cultured in Eagle's Minimum Essential Medium (EMEM) supplemented with Glutamine, Sodium Pyruvate, Non-Essential Amino Acids, Penicillin and Streptomycin containing 10% Fœtal Bovine Serum (FBS), at 37° C. in 5% CO2 atmosphere. Cells were plated in 96 well plates at a density of 17,000 cells/mL the day before the treatment. ER stress was elicited by addition of 5 μg/mL tunicamycin (Sigma-Aldrich) together with the phosphatases inhibitors (0.5-10 μM). Media were changed 6 h later with fresh media and the cytoprotection was maintained by the addition of the phosphatases inhibitors (0.5-10 μM). Cell viability was assessed by measuring the reduction of WST-8 into formazan using Cell Counting Kit-8 (Sigma) according to the supplier's recommendation, 48 h or 72 h after tunicamycin treatment.

[2] = test system: HeLa cells; test: Assessment of translation rates in unstressed cells; format: cell-based; conditions: compounds 50 μM for 2.5, 5 and 9 h
Protocol: Culture medium was replaced by methionine-free DMEM medium (Invitrogen) 30 min before compounds addition. One hour before each time point, 50 μM of Click-iT® AHA (L-azidohomoalanine) (Invitrogen) was added to the culture medium in order to label newly synthesized proteins. At the end of each time point, cells were washed with ice-cold PBS and harvested by Trypsine dissociation (Lonza), then lysed in a 50 mM Tris-HCl buffer containing 1% of SDS (Sigma) and protease and phosphatase inhibitors (Sigma). Protein samples were coupled to alkyne biotin (Invitrogen) using Click-iT® Protein Reaction Buffer Kit (Invitrogen). Samples were denatured at 70° C. for 10 min, resolved on ECL 4-20% precasted gels (GE Healthcare) and transferred to nitrocellulose membranes (GE Healthcare). Alkyne biotin coupled to Click-iT® AHA incorporated to newly synthesized proteins was detected using streptavidin-HRP (Gentex). Revelation was performed by incubation of ECL Prime (GE Healthcare) and read by chemoluminiscence using Fusion Solo 3S (Vilber Lourmat).

[3] = test system: mouse embryonic fibroblasts lipofected with poly I:C; test: In vitro inflammation/infection model: poly I:C induced mouse embryonic fibroblasts; format: cell-based; conditions: 25 μM, 6 h, IFN-beta ELISA
Protocol: After 6 h of culture, eIF2alpha-phosphorylation (eIF2α-P) and PPP1R15A (GADD34) expression was monitored by western blotting, while type-I Interferon (IFN)-beta production was quantified in culture supernatants by ELISA. Control (nt) and poly I:C/DMSO are respectively negative and positive controls.
MEFs were cultured in DMEM, 10% FCS (HyClone, Perbio), 100 units/ml penicillin, 100 μg/ml streptomycin, 2 mM glutamine, 1×MEM non-essential amino acids and 50 μM 2-mercaptoethanol. MEFS were treated for the indicated time with 10 μg/ml poly I:C (InvivoGen) in combination with lipofectamine 2000 (Invitrogen).
Cells were lysed in 1% Triton X-100, 50 mM Hepes, 10 mM NaCl, 2.5 mM MgCl2, 2 mM EDTA, 10% glycerol, supplemented with Complete Mini Protease Inhibitor Cocktail Tablets (Roche). Protein quantification was performed using the BCA Protein Assay (Pierce). […] Rabbit polyclonal antibodies recognizing GADD34 (C-19) were from Santa Cruz Biotechnology and anti-eIF2alpha[pS^52] were from Invitrogen.
IFN-beta quantification in culture supernatant was performed using the Mouse Interferon Beta ELISA kit (PBL Interferon Source) according to manufacturer instructions.

[4] = test system: Min6 cells; test: Protection against accumulation of misfold prone Insulin Akita in Min6 cells; format: cell-based; conditions: viability 9 days after treatment
Protocol: Min6 cells were nucleofected with Insulin^Akita a mutant constructs and seeded in 96 well-plates at 300,000 cells/mL and 24 h later, cells were treated with molecules or left untreated. As a control, cells were nucleofected with non-relevant plasmid. 6 days later, a selective agent was added (G418).
Cell viability was assessed by measuring the reduction of WST-8 into formazan using Cell Counting Kit-8 (Sigma) according to the supplier's recommendation, 9 days after treatment.

[5] = test system: INS1 insulinoma cell; test: Cytoprotection from ER stress (tunicamycin) in INS1 cell line; format: cell-based; conditions: 6 hour exposure to tunicamycin, different concentrations
Protocol: (§1) Cells were plated in 96 well plates at a density of 0.5·10^6 cells/mL for Min6 cell line, 0.4·10^6 cells/mL for INS1 cell line the day before the treatment.
(§2) ER stress was elicited by addition of 2.5 μg/mL tunicamycin (Sigma Aldrich) together with phosphatases inhibitors.
(§3) Media were changed 6 h later with fresh media and the cytoprotection was maintained by the addition of phosphatases inhibitors.
(§4) Cell viability was assessed by measuring the reduction of WST-8 into formazan using Cell Counting Kit-8 (Sigma) according to the supplier's recommendation, 72 h after tunicamycin treatment.

[6] = test system: Min6 insulinoma cell; test: Cytoprotection from ER stress (tunicamycin) in Min6 cell line; format: cell-based; conditions: 6 hour exposure to tunicamycin, different concentrations
Protocol: as §1, §2, §3, §4

[7] = target: T1, human alpha2A receptor (Homo sapiens, UniProt P08913); test: Functional GPCR assay for adrenergic α2A receptor (CellKey detection method); format: cell-based; conditions: agonist activity, CHO cells, impedance; EC50>33.3 μM considered no significant alpha-2 adrenergic activity; read-out: Functional adrenergic alpha2 receptor assay EC50
T1 construct: CHO cells endogenously expressing human alpha2A receptor; endogenous in cells; host or cells: CHO cells
T1 sequence (P08913 1-465): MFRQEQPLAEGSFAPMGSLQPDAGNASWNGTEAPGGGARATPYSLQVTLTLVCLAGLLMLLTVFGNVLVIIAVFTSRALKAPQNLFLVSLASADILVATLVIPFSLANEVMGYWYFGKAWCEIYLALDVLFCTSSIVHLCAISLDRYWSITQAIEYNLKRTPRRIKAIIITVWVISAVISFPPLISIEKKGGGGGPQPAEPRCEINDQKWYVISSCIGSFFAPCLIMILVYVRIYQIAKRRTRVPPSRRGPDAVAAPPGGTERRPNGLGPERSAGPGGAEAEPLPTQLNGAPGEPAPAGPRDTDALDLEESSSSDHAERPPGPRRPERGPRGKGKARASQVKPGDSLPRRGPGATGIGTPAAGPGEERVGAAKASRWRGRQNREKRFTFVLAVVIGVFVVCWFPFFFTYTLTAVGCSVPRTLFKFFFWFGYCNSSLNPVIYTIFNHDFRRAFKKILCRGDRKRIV

[8] = test system: HeLa cells; conditions: tunicamycin, Tsaytler et al., Science 2011, cited from earlier work; for protection of cells from cytotoxic ER stress: HeLa cells

N=C(N)N/N=C/c1ccccc1Br [Compound 3, 2-(2-bromobenzylidene) hydrazinecarboximidamide]
Cytoprotection from ER stress compared to guanabenz [1]: ++
Translation inhibition in non-stressed cells [2]: no effect

COc1ccccc1/C=N/NC(=N)N [Compound 4, 2-(2-methoxybenzylidene) hydrazinecarboximidamide]
Cytoprotection from ER stress compared to guanabenz [1]: +

N=C(N)N/N=C/c1ccncc1Cl [Compound 6, 2-[(3-chloropyridin-4-yl)methylidene]hydrazinecarboximidamide]
type-I IFN production (FIG. 13) [3]: prevent type-I IFN production
Cytoprotection from ER stress compared to guanabenz [1]: +
cell death associated with accumulation of misfold prone Insulin Akita (FIG. 8) [4]: prevent cell death
INS1 insulinoma cell death induced by tunicamycin (FIG. 10) [5]: prevent INS1 insulinoma cell death
Min6 insulinoma cell death induced by tunicamycin (FIG. 9) [6]: prevent Min6 insulinoma cell death
Translation inhibition in non-stressed cells [2]: no effect

CC(=O)O.N=C(N)N/N=C/c1ccncc1Cl [Compound 7, 2-[(3-chloropyridin-4-yl)methylidene]hydrazinecarboximidamide acetate]
Cytoprotection from ER stress compared to guanabenz [1]: ++
pEC50 [7]: < 4.48
Translation inhibition in non-stressed cells [2]: no effect

CC(=O)O.N=C(N)N/N=C/c1c(F)cccc1Cl [Compound 8, 2-(2-chloro-6-fluorobenzylidene)hydrazinecarboximidamide acetate]
type-I IFN production (FIG. 13) [3]: prevent type-I IFN production
Cytoprotection from ER stress compared to guanabenz [1]: ++
Translation inhibition in non-stressed cells [2]: no effect

Cc1ccc(/C=N/NC(=N)N)c(Cl)c1 [Compound 9, 2-(2-chloro-4-methylbenzylidene)hydrazinecarboximidamide]
Cytoprotection from ER stress compared to guanabenz [1]: −

Cc1ccc(Cl)c(/C=N/NC(=N)N)c1 [Compound 10, 2-(2-chloro-5-methylbenzylidene)hydrazinecarboximidamide]
Cytoprotection from ER stress compared to guanabenz [1]: +

Cc1cccc(/C=N/NC(=N)N)c1Cl [Compound 11, 2-(2-chloro-3-methylbenzylidene)hydrazinecarboximidamide]
Cytoprotection from ER stress compared to guanabenz [1]: +

Clc1cccc(Cl)c1N=C1NCCN1 [clonidine]
protection of cells from cytotoxic ER stress [8]: Neither the α2-adrenergic receptor agonist clonidine, nor the α2-adrenergic receptor antagonist efaroxan protected cells

CCC1(C2=NCCN2)Cc2ccccc2O1 (stereo not shown) [efaroxan]
protection of cells from cytotoxic ER stress [8]: Neither the α2-adrenergic receptor agonist clonidine, nor the α2-adrenergic receptor antagonist efaroxan protected cells

NC(N)=N/N=C/c1c(Cl)cccc1Cl [guanabenz, 2-(2,6-dichlorobenzylidene)hydrazinecarboximidamide]
protection of cells from cytotoxic ER stress [8]: doubled the number of cells surviving ER stress
pEC50 ([8]; read-out: median effective concentration, survival of HeLa cells exposed to ER stress): ~6.40
